Read-outs that look alike come from different tables or passages of the source. Each block holds one compound with its values, some of them ahead of it.
Key:
[1] = biological target: T1, KRAS-G12C mutant (Homo sapiens, UniProt P01116, G12C); assay: TR-FRET assay of SOS1-assisted KRAS GDP/GTP exchange; assay type: biochemical
Procedure: GDP form of 6*His tagged KRAS-G12C was diluted to 40 nM and incubated with 8 nM LanthaScreen™ Elite Terbium-anti-HIS Antibody (Thermo, catalog number PV5863) in reaction buffer containing 20 mM Tris, pH 7.5, 100 mM NaCl, 1 mM DTT, 0.1% Tween20, 0.05% BSA, 2% DMSO, 1 mM MgCl2. After 1 hour-incubation at 4° C., proteins were placed in 384 well plate (PerkinElmer, PROXIPLATE-384 PLUS). Then compounds with different concentrations were added to the proteins. BODIPY labeled GTP (Thermo, catalog number G12411) and SOS-1 (or reaction buffer as control) were then added to reactions at 200 nM and 1 μM to trigger the exchange of GDP to BODIPY-GTP. TR-FRET emission signals were determined at 520 nm and 620 nm on a Envision® Multilabel Plate Reader (PerkinElmer) using a 337 nm laser as light source. All data were analyzed and plotted using Graph Pad Prism software (version 8.0.1). Raw TR-FRET data were converted to percentage of inhibition (relative to DMSO) using the following equations: […]
b) For a given test compound concentration X:
Signal (X)=Emission ratio (SOS-1 & GTP)—Emission ratio (buffer & GTP)
c) Percentage of inhibition at concentration X=[1−Signal(X)/Signal (DMSO)]*100%
The […] values were determined by nonlinear regression of plots of [inhibitor] vs. percentage of inhibition with variable slope. Table 4 summarizes inhibition of SOS1-assisted GDP/GTP exchanging activity of KRAS-G12C mutant with exemplary compounds of the present disclosure.

[2] = biological target: T1, KRAS-G12C mutant; assay: Gel shift assay (SDS-PAGE) for covalent modification of KRAS G12C; assay type: binding; conditions: 0.5 μM compound, 1 μM GDP-bound KRAS G12C, 25° C., 5 minutes, shift indicative of covalent cysteine conjugation
Procedure: 0.5 μM compounds were incubated with 1 μM GDP-bound untagged KRAS (G12C or wild type) proteins at 25° C. for 5 minutes in 40 μl reaction buffer (50 mM Tris, pH 7.5, 100 mM NaCl, 1 mM MgCl2, 1 mM DTT). The reactions were quenched with 10 μI SDS-PAGE sample loading buffer (250 mM Tris-HCl, pH 6.8, 10% SDS, 0.5% bromophenol blue, 50% glycerol and 50 mM DTT) and then analyzed via SDS-PAGE using 4%-20% gradient polyacrylamide gel followed by Coomassie blue stain.
FIG. 1 illustrates mobility change of KRAS-G12C mutant or wild type proteins on SDS-PAGE after 5 minutes of coincubation at 25° C. with exemplary compounds of the present disclosure, indicative of covalent cysteine conjugation.
Table 3 summarizes molecular weight shift of KRAS-G12C mutant on SDS-PAGE after 5 mins of coincubation at 25° C. with exemplary compounds of the present disclosure, indicative of covalent cysteine conjugation.

[3] = system: MIA PaCa-2 cell line; assay: 3D cell growth assay (CellTiter-Glo), MIA PaCa-2; assay type: cell-based; conditions: Homo sapiens, MIA PaCa-2, 144 h, 6 days, read-out: 3D growth inhibition GI50
Procedure: MIA PaCa-2 (ATCC), NCI-H358 (ATCC), NCI-H23 (ATCC), SW837 and A549 (ATCC) cells were plated in round bottom 96-well spheroid microplates (Corning, 4520) at 3000 cells/well in 90 ul of RPMI growth medium containing 10% FBS and 1% Penicillin Streptomycin. Cells were incubated at 37° C. overnight. The following day, the test compound was administered to the cells by using 10× compound stock solution prepared in growth medium at various concentrations. After administration of the compound, cells were then incubated at 37° C. for 6 days. Before CellTiter-Glo assay, the plates were equilibrated at room temperature for approximately 10 minutes. 100 ul of CellTiter-Glo® Reagent (Promega, G7573) was added to each well. The plates were then incubated at room temperature for 10 minutes and luminescence was recorded by EnSpire plate reader (PerkinElmer). Table 6 illustrates growth inhibition (G150) by exemplary compounds 1-10 of the present disclosure in a MIA PaCa-2 cell line 6 days after administration in 3D cell culture. A: >0.1 nM and <1 nM; B: >=1 nM and <10 nM; C: >=10 nM and <100 nM; D: >100 nM.

[4] = system: phospho-ERK1/2 (Thr202/Tyr204) in MIA PaCa-2 cell line; assay: pERK and ERK Western blot analysis, MIA PaCa-2; assay type: cell-based; conditions: Homo sapiens
Procedure: MIA PaCa-2 (ATCC), NCI-H358 (ATCC), NCI-H23 (ATCC), SW837 and A549 (ATCC) cells were plated in 24-well plates at 2×10^5cells/well in RPMI growth medium containing 10% FBS and 1× Penicillin Streptomycin. They were then incubated at 37° C. overnight. The following day, the test compound was administered to the cells by using 1000× compound stock solution prepared in DMSO at various concentrations. After administration of the compound, the cells were then incubated at 37° C. for 4 hours. Upon completion, the cells were washed with PBS and protein was collected in Laemmli sample buffer (1×; VWR International). Proteins in cell lysate were separated by SDS-PAGE and transferred to Odyssey nitrocellulose membranes (Licor) with iblot® dry blotting transfer system (ThermoFisher). Nonspecific binding was blocked by incubating membranes with Intercept Blocking Buffer (Licor) for 1 hour at room temperature with gentle shaking. The membranes were then incubated overnight at 4° C. with primary antibodies rabbit anti-phospho p44/42 MAPK (Erk1/2) (1:2,000, Cell Signaling, 4370) and mouse anti-p44/42 MAPK (Erk1/2) (1:1,000, Cell Signaling, 4696) diluted in Intercept Blocking Buffer containing 0.1% Tween 20. After washing 3 times with TBS-T, the membranes were incubated with IRDye® 800CW goat anti-rabbit IgG (1:20,000, Licor) or IRDye® 680CW goat anti-mouse IgG (1:20,000, Licor) for 1 hour. After TBS-T washes, membranes were rinsed in TBS and scanned on Odyssey® CLx Imaging System (Licor). The bands were quantified using Image Studio™ Software (Licor).

[5] = MIA PaCa-2 cell line, 3D cell culture
[6] = MIA PaCa-2 cell line, 4 hours after incubation, read-out: 2D pERK IC50

IC50 [1]: 6930 nM
KRAS-G12C molecular weight shift [2]: No
GI50 [3, 5]: 10 to 100 nM
IC50 [4, 6]: > 100 nM
Compound: C=C(F)C(=O)N1CCN(c2nc(OC[C@@]34CCCN3C[C@H](F)C4)nc3c2CO[C@@H](c2cccc4cccc(Cl)c24)C3)C[C@@H]1CC#N (single isomer, unassigned) [Compound 63]

IC50 [1]: 30 nM
KRAS-G12C molecular weight shift [2]: Yes
GI50 [3, 5]: 1 to 10 nM
IC50 [4, 6]: 10 to 100 nM
Compound: C=C(F)C(=O)N1CCN(c2nc(OCC34CCCN3CCC4)nc3c2[C@H](C)O[C@H](c2cccc4cccc(C)c24)C3)C[C@@H]1CC#N [Compound 66, 2-((S)-1-(2-fluoroacryloyl)-4-((5S,7S)-5-methyl-7-(8-methylnaphthalen-1-yl)-2-((tetrahydro-1H-pyrrolizin-7a(5H)-yl)methoxy)-7,8-dihydro-5H-pyrano[4,3-d]pyrimidin-4-yl)piperazin-2-yl)acetonitrile]

IC50 [1]: 209 nM
KRAS-G12C molecular weight shift [2]: Yes
GI50 [3, 5]: 10 to 100 nM
IC50 [4, 6]: 10 to 100 nM
Compound: C=C(F)C(=O)N1CCN(c2nc(OCC3(CN4CCCC4)CC3)nc3c2COC(c2cccc4cccc(Cl)c24)C3)C[C@@H]1CC#N (mixture of isomers) [Compound 71, 2-((2S)-4-(7-(8-chloronaphthalen-1-yl)-2-((1-(pyrrolidin-1-ylmethyl)cyclopropyl)methoxy)-7,8-dihydro-5H-pyrano[4,3-d]pyrimidin-4-yl)-1-(2-fluoroacryloyl)piperazin-2-yl)acetonitrile]

IC50 [1]: 112 nM
KRAS-G12C molecular weight shift [2]: Yes
GI50 [3, 5]: 10 to 100 nM
IC50 [4, 6]: 10 to 100 nM
Compound: C=C(F)C(=O)N1CCN(c2nc(OCC3(CN4CCCC4)CC3)nc3c2CO[C@H](c2cccc4cccc(Cl)c24)C3)C[C@@H]1CC#N (single isomer, unassigned) [Compound 73]

More lines, now with the values behind:

Compound: C=CC(=O)N1CCN(c2nc(OC[C@@H]3CCCN3C)nc3c2COC(c2cccc4ccccc24)C3)C[C@@H]1CC#N (stereo partly drawn) [Compound 2, 2-((2S)-1-acryloyl-4-(2-(((S)-1-methylpyrrolidin-2-yl)methoxy)-7-(naphthalen-1-yl)-7,8-dihydro-5H-pyrano[4,3-d]pyrimidin-4-yl)piperazin-2-yl)acetonitrile]
IC50 [1]: 77 nM
GI50 [3, 5]: 1 to 10 nM
IC50 [4, 6]: 10 to 100 nM

Compound: C=CC(=O)N1CCN(c2nc(OC[C@@H]3C[C@@H](F)CN3C)nc3c2COC(c2cccc4ccccc24)C3)C[C@@H]1CC#N (stereo partly drawn) [Compound 8, 2-((2S)-1-acryloyl-4-(2-(((2S,4R)-4-fluoro-1-methylpyrrolidin-2-yl)methoxy)-7-(naphthalen-1-yl)-7,8-dihydro-5H-pyrano[4,3-d]pyrimidin-4-yl)piperazin-2-yl)acetonitrile]
IC50 [1]: 238 nM
GI50 [3, 5]: 10 to 100 nM
IC50 [4, 6]: 1 to 10 nM

Compound: C=C(F)C(=O)N1CCN(c2nc(OC[C@@]34CCCN3C[C@H](F)C4)nc3c2COC(c2cccc4cccc(Cl)c24)C3)C[C@@H]1CC#N (stereo partly drawn) [Compound 62, 2-((2S)-4-(7-(8-chloronaphthalen-1-yl)-2-(((2R,7aS)-2-fluorotetrahydro-1H-pyrrolizin-7a(5H)-yl)methoxy)-7,8-dihydro-5H-pyrano[4,3-d]pyrimidin-4-yl)-1-(2-fluoroacryloyl)piperazin-2-yl)acetonitrile]
IC50 [1]: 40 nM
KRAS-G12C molecular weight shift [2]: Yes
GI50 [3, 5]: 0.1 to 1 nM
IC50 [4, 6]: 1 to 10 nM

Compound: C=CC(=O)N1CCN(c2nc(OC[C@@H]3CCCN3C)nc3c2CO[C@H](c2cccc4cccc(Cl)c24)C3)C[C@@H]1CC#N [Compound 7, 2-((S)-1-acryloyl-4-((S)-7-(8-chloronaphthalen-1-yl)-2-(((S)-1-methylpyrrolidin-2-yl)methoxy)-7,8-dihydro-5H-pyrano[4,3-d]pyrimidin-4-yl)piperazin-2-yl)acetonitrile]
IC50 [1]: 19 nM
GI50 [3, 5]: 1 to 10 nM
IC50 [4, 6]: 0.1 to 1 nM

Compound: C=C(F)C(=O)N1CCN(c2nc(OC[C@@H]3CCCN3C)nc3c2CO[C@H](c2cccc4cccc(Cl)c24)C3)C[C@@H]1CC#N [Compound 18, 2-((S)-4-((S)-7-(8-chloronaphthalen-1-yl)-2-(((S)-1-methylpyrrolidin-2-yl)methoxy)-7,8-dihydro-5H-pyrano[4,3-d]pyrimidin-4-yl)-1-(2-fluoroacryloyl)piperazin-2-yl)acetonitrile]
IC50 [1]: 78 nM
KRAS-G12C molecular weight shift [2]: Yes
GI50 [3, 5]: 1 to 10 nM
GI50 ([3]; MiaPaCa2, KRAS G12C, 3D): 7.3 nM
IC50 ([4]; MIA PaCa-2, MiaPaCa2, KRAS G12C, 4 hours, read-out: pERK IC50): 21.9 nM
IC50 [4, 6]: 10 to 100 nM

Compound: C=C(F)C(=O)N1CCN(c2nc(OCC34CCCN3CCC4)nc3c2COC(c2cccc4cccc(C)c24)C3)C[C@@H]1CC#N (stereo partly drawn) [Compound 56, 2-((2S)-1-(2-fluoroacryloyl)-4-(7-(8-methylnaphthalen-1-yl)-2-((tetrahydro-1H-pyrrolizin-7a(5H)-yl)methoxy)-7,8-dihydro-5H-pyrano[4,3-d]pyrimidin-4-yl)piperazin-2-yl)acetonitrile]
IC50 [1]: 70 nM
KRAS-G12C molecular weight shift [2]: Yes
GI50 [3, 5]: 1 to 10 nM
IC50 [4, 6]: 10 to 100 nM

Compound: C=CC(=O)N1CCN(c2nc(OC[C@@H]3CCCN3C)nc3c2CO[C@H](c2cccc4ccccc24)C3)C[C@@H]1CC#N [Compound 4, 2-((S)-1-acryloyl-4-((S)-2-(((S)-1-methylpyrrolidin-2-yl)methoxy)-7-(naphthalen-1-yl)-7,8-dihydro-5H-pyrano[4,3-d]pyrimidin-4-yl)piperazin-2-yl)acetonitrile]
IC50 [1]: 49 nM
GI50 [3, 5]: 1 to 10 nM
IC50 [4, 6]: 1 to 10 nM

Compound: C=CC(=O)N1CCN(c2nc(OC[C@@H]3C[C@H](F)CN3C)nc3c2CO[C@H](c2cccc4ccccc24)C3)C[C@@H]1CC#N [Compound 9, 2-((S)-1-acryloyl-4-((S)-2-(((2S,4S)-4-fluoro-1-methylpyrrolidin-2-yl)methoxy)-7-(naphthalen-1-yl)-7,8-dihydro-5H-pyrano[4,3-d]pyrimidin-4-yl)piperazin-2-yl)acetonitrile]
IC50 [1]: 1 nM
GI50 [3, 5]: 10 to 100 nM
IC50 [4, 6]: 10 to 100 nM

Reference: US20220112204A1, “SUBSTITUTED DIHYDROPYRANOPYRIMIDINE COMPOUNDS AS KRAS INHIBITORS” (ACCUTAR BIOTECHNOLOGY INC., priority 2020, published 2022)
